Results taken from patent US8445678B2, “2-quinoxalinol salen compounds and uses thereof” (Auburn University, priority 2008, dated 2013).

Legend:
[1] = Stability of ligands, imines, intermediates and catalysts (temperature, air, moisture, solvents); assay type: physicochemical; conditions: exposure to air
[2] = Catalytic oxidation of diphenylmethane into benzophenone; conditions: yields by flash column chromatography and mass calculation
Method: The conversion of diphenylmethane into benzophenone was selected to test the activity of catalyst salquCu 1 and to develop optimized conditions, Based on previous reports with salphCu, three equivalents of H2O2 in CH3CN as solvent with 1% by molar of the catalyst salquCu 1 was heated to reflux temperature for 18 hours. Under these conditions, the isolated yield of benzophenone was only 27%. Six experimental factors were considered to optimizing this reaction: oxidant (FIG. 7), catalyst ratio (FIG. 8), reaction time (FIG. 9), oxidant ratio (FIG. 10), solvent, and types of catalyst (FIG. 11 and Table 10).
First, four oxidants were tested using CH3CN as solvent in each case, with 1% of catalyst 1 at reflux temperature for 18 hours. […] When tert-butylhydroperoxide in water was used as the oxidant, the yield of product, benzophenone, was around 80%. (FIG. 7) The use of tert-butylhydroperoxide in decane allows for a uniform or monophasic organic soluble catalyst system, and thus further improves the optimal yield. […]
The synthesis of the products depicted in Table 11 began with the combination of catalyst 1 (0.02 mmol, 15.2 mg) and 2.0 mmol of starting material (aryl methylene compound) dissolved in 2.0 mL acetonitrile with 1.0 mL tert-butylhydroperoxide decane solution (6.0 mmol). The reaction mixture was allowed to stir for 18 hours at 70° C. and monitored by TLC. […]

Nc1cc2ncc(O)nc2cc1N [Intermediate 1e]
stability in air / atmospheric conditions [1]: not stable and was found to decompose on exposure to air | Yield (%) of benzophenone, optimized conditions with different salquCu catalysts [2]: 90%
